According to patent US6610675B1 (priority 1980, dated 2003):

Tests used:
thymus weight in rats = assay: Thymus inhibition testing (subcutaneous administration); assay type: in vivo, rat; settings: for Body weight gain / Thymus / Thymus Inhibition: Table VII, three days
Experimental: Several further studies were undertaken to determine the effects of selected compounds of the invention on thymi weights in rats when the drugs were systemically administered. In each of these studies, male Sprague-Dawley rats were used. […] On the fifth day (48 hours following the last treatment), the animals were sacrificed and the thymi weights were recorded. […] It is evident that the higher the inhibition of thymus activity at a given dose, the more toxic the compound is.

[1] = tested on: granulation tissue formation caused by implantation of cotton pellets; assay: Granuloma formation test (local cotton pellet granuloma assay); assay type: in vivo, rat; settings: for Body wt. gain / Granulation tissue Dry wt. / Granulation tissue Dry wt. Inhibition / Granulation tissue Wet wt. / Granulation tissue Wet wt. Inhibition / Thymus wt.: Table IV
Experimental: The test compound was dissolved in acetone and aliquots of varying concentrations were injected into cotton pellets. The pellets were dried and then one pellet was implanted beneath the skin of each test rat. Six days later, the animals were sacrificed and the granulation tissue (granuloma) which formed in and around the implanted pellet was removed, dried and weighed. In addition, the thymi and adrenals were removed and weighed.

[2] = Table X, betamethasone 17-valerate = 1
[3] = chloromethyl 11β-hydroxy-17α-isopropoxycarbonyloxyandrost-4-en-3-one-17β-carboxylate = 1

CC(C)OC(=O)O[C@]1(C(=O)OCCl)CC[C@H]2[C@@H]3CCC4=CC(=O)C=C[C@]4(C)[C@H]3[C@@H](O)C[C@@]21C [chloromethyl 11β-hydroxy-17α-isopropoxycarbonyloxy-androsta-1,4-dien-3-one-17β-carboxylate]
Body weight gain (thymus weight in rats; 3 mg/kg/day s.c.): 9.0 ± 0.9 g | Thymus (thymus weight in rats; 3 mg/kg/day s.c.): 377 ± 16 mg | Thymus Inhibition (thymus weight in rats; 3 mg/kg/day s.c.): 20.0% | Body weight gain (thymus weight in rats; 10 mg/kg/day s.c.): 6.2 ± 0.7 g | Thymus (thymus weight in rats; 10 mg/kg/day s.c.): 312 ± 23 mg | Thymus Inhibition (thymus weight in rats; 10 mg/kg/day s.c.): 33.8% | Body weight gain (thymus weight in rats; 30 mg/kg/day s.c.): 4.8 ± 1.4 g | Thymus (thymus weight in rats; 30 mg/kg/day s.c.): 257 ± 24 mg | Thymus Inhibition (thymus weight in rats; 30 mg/kg/day s.c.): 45.4% | Body weight gain (thymus weight in rats; 100 mg/kg/day s.c.): 0.3 ± 1.6 g | Thymus (thymus weight in rats; 100 mg/kg/day s.c.): 161 ± 19 mg | Thymus Inhibition (thymus weight in rats; 100 mg/kg/day s.c.): 65.8% | Relative Potency (TED40) (thymus weight in rats; [2]): 0.02 | Relative Potency (TED50) (thymus weight in rats; [2]): 0.02 | TED40 (thymus weight in rats; Table X, dose required to achieve 40% inhibition of thymi weight, subcutaneous): 16.2 mg | TED50 (thymus weight in rats; Table X, dose required to achieve 50% inhibition of thymi weight, subcutaneous): 35.3 mg | Relative Potency (TED40) (thymus weight in rats; Table XII, hydrocortisone 17-butyrate = 1): 1/12 | TED40 (thymus weight in rats; Table XII, thymus inhibition effect, subcutaneously): 16.2 mg/kg | Body wt. gain ([1]; 30 μg/pellet): 32.4 ± 1.2 g | Granulation tissue Dry wt. ([1]; 30 μg/pellet): 51.0 ± 2.8 mg | Granulation tissue Dry wt. Inhibition ([1]; 30 μg/pellet): 37.2% | Granulation tissue Wet wt. ([1]; 30 μg/pellet): 432 ± 15 mg | Granulation tissue Wet wt. Inhibition ([1]; 30 μg/pellet): 23.7% | Thymus wt. ([1]; 30 μg/pellet): 523 ± 26 mg | Body wt. gain ([1]; 100 μg/pellet): 35.0 ± 1.5 g | Granulation tissue Dry wt. ([1]; 100 μg/pellet): 41.1 ± 5.8 mg | Granulation tissue Dry wt. Inhibition ([1]; 100 μg/pellet): 49.4% | Granulation tissue Wet wt. ([1]; 100 μg/pellet): 417 ± 27 mg | Granulation tissue Wet wt. Inhibition ([1]; 100 μg/pellet): 26.3% | Thymus wt. ([1]; 100 μg/pellet): 537 ± 31 mg | Body wt. gain ([1]; 300 μg/pellet): 34.4 ± 1.1 g | Granulation tissue Dry wt. ([1]; 300 μg/pellet): 38.1 ± 5.9 mg | Granulation tissue Dry wt. Inhibition ([1]; 300 μg/pellet): 53.1% | Granulation tissue Wet wt. ([1]; 300 μg/pellet): 369 ± 18 mg | Granulation tissue Wet wt. Inhibition ([1]; 300 μg/pellet): 34.8% | Thymus wt. ([1]; 300 μg/pellet): 525 ± 28 mg | Body wt. gain ([1]; 1000 μg/pellet): 29.4 ± 1.5 g | Granulation tissue Dry wt. ([1]; 1000 μg/pellet): 18.5 ± 2.4 mg | Granulation tissue Dry wt. Inhibition ([1]; 1000 μg/pellet): 77.2% | Granulation tissue Wet wt. ([1]; 1000 μg/pellet): 289 ± 12 mg | Granulation tissue Wet wt. Inhibition ([1]; 1000 μg/pellet): 48.9% | Thymus wt. ([1]; 1000 μg/pellet): 423 ± 26 mg | ED50 ([1]; Table XII, anti-inflammatory effect in cotton pellet granuloma): 119 μg/pellet | Relative potency (ED40) [1, 3]: 6.5 | Relative potency (ED60) [1, 3]: 2.3 | ED40 ([1]; dose causing 40% inhibition of granulation tissue weight): 47 μg/pellet | ED50 ([1]; dose causing 50% inhibition of granulation tissue weight): 119 μg/pellet | ED60 ([1]; dose causing 60% inhibition of granulation tissue weight): 301 μg/pellet
